# In patent US20080113908A1, “Use of CRF receptor agonists for the treatment or Prophylaxis of diseases, for example Neurodegenerative diseases” (SmithKline Beecham plc, priority 2000, published 2008):
# Columns and labels:
# GSK-3β = test: Western blot of serine-9-phosphorylated GSK-3β (FIG. 5); format: cell-based, rat; conditions: compound alone, 2 hours; CRF 10 nM, LY 294002 75 μM, FSK 30 μM
# Text: It was thought that CRF receptor agonists might interact with the PI 3-kinase signalling pathway and exert their neuroprotective effect by phosphorylating and inhibiting the protein GSK-3β,which is pro-apoptotic (M. Pap and G. M. Cooper, J. Biol. Chem., 273(32), 19929-19932, 1998; and M. Hetman et al. J. Neurosci., 1st Apr. 2000, 20(7), 2567-2574; discussed hereinabove). In order to confirm this, the level of GSK-3β phosphorylated at serine-9 (e.g. see D. A. E. Cross, Nature, 378, 785-789, 1995) in control cultures of cerebellar granule neurones was measured using Western blots, and compared to the level of phospho-GSK-3β in the presence of CRF as a model CRF receptor agonist and/or in the presence of the PI 3-kinase inhibitor LY 294002. In order to determine whether elevation of cAMP was involved in any effect, the level of phospho-GSK-3β in cultures in the presence of the known cAMP-elevating agent forskolin (FSK, obtainable e.g. from Calbiochem.) with or without LY 294002 present was also measured. The forskolin acts as a benchmark for cAMP-related effects.
# The method used was as follows. […]
# Phosphorylation of GSK-3β was detected using an antibody to serine-9-phosphorylated GSK-3β (anti-phospho-GSK-3β (Ser9)) available as catalogue no. […]
# [1] = system: cerebellar granule neurons; test: Delayed addition of CRF after LY 294002, variation of Assay 1 (FIGS. 6A, 6B); format: cell-based, rat
# Experimental: FIGS. 6A and 6B show neuronal survival results, using a variation of Assay 1 in which CRF (10 nM) was added at varying times (shown in hours) following LY 294002 (75 μM) addition. Therefore, granule neurons were cultured with the PI 3-kinase inhibitor LY 294002 (75 μM) in the presence of 10 nM CRF, added together with LY 294002 or at different times (shown in hours) following LY 294002 addition. FIG. 6A is the result from one experiment only. […] It appears from FIG. 6A that the neuroprotective effect is sustained when adding CRF at about 1-4 hrs after LY 294002 addition. From FIG. 6B, it appears that the neuroprotective effect is sustained when adding CRF up to 8 hours after LY 294002 addition.
# hippocampal neurones = test: Amyloid-β peptide (25-35) toxicity, survival by counting viable neurons (FIGS. 8, 9); format: cell-based; conditions: Aβ(25-35) 10 μM, CRF 3-100 nM, 3 days
# Experimental: In order to test whether CRF receptor agonists protect neurones from death caused by Aβ, the following experiment was conducted (FIGS. 8 and 9). Hippocampal neurons from embryonic day 18 rat were cultured in serum-free medium (neurobasal/B27) for 9 days. The culture methods are described on page 48 of S. D. Skaper et al., J. Neurochem., 2001, 76, 47-55. Cells were then treated with amyloid-β peptide (fragment 25-35) (Sigma, cat. no. A-4559, sequence Gly-Ser-Asn-Lys-Gly-Ala-Ile-Ile-Gly-Leu-Met) at 10 μM plus the indicated CRF receptor agonist at the indicated concentration, in the same culture medium. […] Cell survival was assessed after 3 days, by fixing the cultures and counting microscopically viable neurons. Values are expressed relative to numbers of surviving neurons in untreated cultures (=100).
substance,measurement,setting,value
H-SQEPPISLDLTFHLLREVLEMTKADQLAQQAHNNRKLLDIA-NH2 [CRF],phospho-GSK-3β level compared to control CN,GSK-3β,increase in basal phospho-GSK-3β
same,neuroprotective effect with delayed CRF addition,"[1]; CRF 10 nM added 10, 24 and 32 hours after LY 294002 75 μM",Only a small neuroprotective effect
same,neuroprotective effect with delayed CRF addition,[1]; CRF 10 nM added 46 hours after LY 294002 75 μM,no neuroprotection
same,time of CRF addition after LY 294002 at which neuroprotective effect is sustained (FIG. 6A),"[1]; CRF 10 nM, LY 294002 75 μM, one experiment",1 to 4 h
same,time of CRF addition after LY 294002 at which neuroprotective effect is sustained (FIG. 6B),"[1]; CRF 10 nM, LY 294002 75 μM, two experiments combined",up to 8 hours
same,neuroprotective effect against Aβ toxicity (FIG. 8),hippocampal neurones,40-50%
